ChEMBL document CHEMBL1201861, “Genomics of Drug Sensitity in Cancer screening data, Wellcome Trust Sanger Institute”
pIC50: −log10 of the molar value.

Tests used:
Experiment in all cases: cells
COLO-741 = assay type: functional, cell-based, Homo sapiens; settings: Homo sapiens, COLO-741
Description: SANGER: Inhibition of human COLO-741 cell growth in a cell viability assay.

COR-L23 = assay type: functional, cell-based, Homo sapiens; settings: Homo sapiens, COR-L23;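 note: cell viability assay measuring how strongly compounds suppress growth of COR-L23 cells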
Description: SANGER: Inhibition of human COR-L23 cell growth in a cell viability assay.

EFO-21 = assay type: functional, cell-based, Homo sapiens; settings: Homo sapiens, EFO-21;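 note: growth inhibition of EFO-21 cells measured with a viability assay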
Description: SANGER: Inhibition of human EFO-21 cell growth in a cell viability assay.

ES4 = assay type: functional, cell-based, Homo sapiens; settings: Homo sapiens, ES4;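 note: growth inhibition of human ES4 cells, read out by a cell viability assay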
Description: SANGER: Inhibition of human ES4 cell growth in a cell viability assay.

G-401 = assay type: functional, cell-based, Homo sapiens; settings: Homo sapiens, G-401
Description: SANGER: Inhibition of human G-401 cell growth in a cell viability assay.

GCT = assay type: functional, cell-based, Homo sapiens; settings: Homo sapiens, GCT;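 note: GCT cell line proliferation inhibition, read out with a cell viability assay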
Description: SANGER: Inhibition of human GCT cell growth in a cell viability assay.

HCC1419 = assay type: functional, cell-based, Homo sapiens; settings: Homo sapiens, HCC1419;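 note: growth inhibition of human HCC1419 cells, read out as cell viability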
Description: SANGER: Inhibition of human HCC1419 cell growth in a cell viability assay.

HOS = assay type: functional, cell-based, Homo sapiens; settings: Homo sapiens, HOS;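 note: growth inhibition of human HOS cells, read out with a cell viability assay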
Description: SANGER: Inhibition of human HOS cell growth in a cell viability assay.

Huh-7 = assay type: functional, cell-based, Homo sapiens; settings: Homo sapiens, Huh-7;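 note: HuH-7 cell growth inhibition, read out with a cell viability assay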
Description: SANGER: Inhibition of human HuH-7 cell growth in a cell viability assay.

IGR-1 = assay type: functional, cell-based, Homo sapiens; settings: Homo sapiens, IGR-1;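 note: growth inhibition of human IGR-1 cells, read out with a cell viability assay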
Description: SANGER: Inhibition of human IGR-1 cell growth in a cell viability assay.

IST-MEL1 = assay type: functional, cell-based, Homo sapiens; settings: Homo sapiens, IST-MEL1;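 note: growth inhibition of the cell line, read out with a cell viability assay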
Description: SANGER: Inhibition of human IST-MEL1 cell growth in a cell viability assay.

KLE = assay type: functional, cell-based, Homo sapiens; settings: Homo sapiens, KLE;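 note: growth inhibition of human KLE cells, read out with a cell viability assay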
Description: SANGER: Inhibition of human KLE cell growth in a cell viability assay.

KYSE-150 cell line = assay type: functional, cell-based, Homo sapiens; settings: Homo sapiens, KYSE-150;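 note: growth inhibition of human KYSE-150 cells, read out with a cell viability assay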
Description: SANGER: Inhibition of human KYSE-150 cell growth in a cell viability assay.

KYSE-270 = assay type: functional, cell-based, Homo sapiens; settings: Homo sapiens, KYSE-270;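 note: cell growth inhibition measured with a viability assay in the human KYSE-270 line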
Description: SANGER: Inhibition of human KYSE-270 cell growth in a cell viability assay.

LCLC-103H cell line = assay type: functional, cell-based, Homo sapiens; settings: Homo sapiens, LCLC-103H
Description: SANGER: Inhibition of human LCLC-103H cell growth in a cell viability assay.

LS-513 = assay type: functional, cell-based, Homo sapiens; settings: Homo sapiens, LS-513
Description: SANGER: Inhibition of human LS-513 cell growth in a cell viability assay.

LU-134-A = assay type: functional, cell-based; settings: Homo sapiens
Description: SANGER: Inhibition of human LU-134-A cell growth in a cell viability assay.

MC-IXC = assay type: functional, cell-based, Homo sapiens; settings: Homo sapiens, MC-IXC;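 note: growth inhibition of MC-IXC cells, read out with a cell viability assay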
Description: SANGER: Inhibition of human MC-IXC cell growth in a cell viability assay.

ME-180 = assay type: functional, cell-based; settings: Homo sapiens;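 note: cell viability assay measuring growth inhibition of ME-180 cells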
Description: SANGER: Inhibition of human ME-180 cell growth in a cell viability assay.

MG-63 = assay type: functional, cell-based, Homo sapiens; settings: Homo sapiens, MG-63;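 note: growth inhibition of human MG-63 cells, read out with a cell viability assay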
Description: SANGER: Inhibition of human MG-63 cell growth in a cell viability assay.

NCI-H1092 = assay type: functional, cell-based; settings: Homo sapiens;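 note: cell growth inhibition measured with a cell viability assay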
Description: SANGER: Inhibition of human NCI-H1092 cell growth in a cell viability assay.

NCI-H1395 = assay type: functional, cell-based, Homo sapiens; settings: Homo sapiens, NCI-H1395;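 note: cell viability assay read-out quantifying reduced proliferation of human NCI-H1395 cells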
Description: SANGER: Inhibition of human NCI-H1395 cell growth in a cell viability assay.

NCI-H1755 = assay type: functional, cell-based, Homo sapiens; settings: Homo sapiens, NCI-H1755;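 note: cell viability readout used to measure growth inhibition of NCI-H1755 cells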
Description: SANGER: Inhibition of human NCI-H1755 cell growth in a cell viability assay.

NCI-H1793 = assay type: functional, cell-based, Homo sapiens; settings: Homo sapiens, NCI-H1793;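 note: cell growth inhibition, read out by a cell viability assay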
Description: SANGER: Inhibition of human NCI-H1793 cell growth in a cell viability assay.

NCI-H2087 = assay type: functional, cell-based, Homo sapiens; settings: Homo sapiens, NCI-H2087;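 note: growth inhibition determined with a cell viability readout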
Description: SANGER: Inhibition of human NCI-H2087 cell growth in a cell viability assay.

NCI-H2126 = assay type: functional, cell-based, Homo sapiens; settings: Homo sapiens, NCI-H2126;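 note: growth inhibition of the cancer cell line, determined with a cell viability readout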
Description: SANGER: Inhibition of human NCI-H2126 cell growth in a cell viability assay.

NCI-H2452 = assay type: functional, cell-based, Homo sapiens; settings: Homo sapiens, NCI-H2452;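 note: growth inhibition of NCI-H2452 cells, read out with a cell viability assay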
Description: SANGER: Inhibition of human NCI-H2452 cell growth in a cell viability assay.

NCI-H747 = assay type: functional, cell-based; settings: Homo sapiens;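 note: growth inhibition of human NCI-H747 cells, read out by a cell viability assay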
Description: SANGER: Inhibition of human NCI-H747 cell growth in a cell viability assay.

OVCAR-5 = assay type: functional, cell-based, Homo sapiens; settings: Homo sapiens, OVCAR-5;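 note: growth inhibition of human OVCAR-5 cells, read out with a cell viability assay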
Description: SANGER: Inhibition of human OVCAR-5 cell growth in a cell viability assay.

P30-OHK = assay type: functional, cell-based; settings: Homo sapiens;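 note: growth inhibition of the P30-OHK cell line, read out with a cell viability assay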
Description: SANGER: Inhibition of human P30-OHK cell growth in a cell viability assay.

PA-1 = assay type: functional, cell-based, Homo sapiens; settings: Homo sapiens, PA-1;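 note: IC50 for suppression of PA-1 cell proliferation, determined with a cell viability read-out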
Description: SANGER: Inhibition of human PA-1 cell growth in a cell viability assay.

QIMR-WIL = assay type: functional, cell-based; settings: Homo sapiens;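 note: growth inhibition of QIMR-WIL cells, read out with a cell viability assay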
Description: SANGER: Inhibition of human QIMR-WIL cell growth in a cell viability assay.

RH-1 = assay type: functional, cell-based, Homo sapiens; settings: Homo sapiens, RH-1;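 note: growth inhibition of human RH-1 cells, read out with a cell viability assay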
Description: SANGER: Inhibition of human RH-1 cell growth in a cell viability assay.

Ramos-2G6-4C10 = assay type: functional, cell-based; settings: Homo sapiens;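 note: growth inhibition of the cell line, measured by a cell viability read-out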
Description: SANGER: Inhibition of human Ramos-2G6-4C10 cell growth in a cell viability assay.

SF-268 = assay type: functional, cell-based, Homo sapiens; settings: Homo sapiens, SF-268;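 note: growth inhibition of SF-268 cells determined with a cell viability assay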
Description: SANGER: Inhibition of human SF268 cell growth in a cell viability assay.

SK-MEL-30 = assay type: functional, cell-based; settings: Homo sapiens;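 note: growth inhibition of SK-MEL-30 cells, determined with a cell viability assay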
Description: SANGER: Inhibition of human SK-MEL-30 cell growth in a cell viability assay.

SK-NEP-1 = assay type: functional, cell-based; settings: Homo sapiens;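 note: growth inhibition of human SK-NEP-1 cells, read out by a cell viability assay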
Description: SANGER: Inhibition of human SK-NEP-1 cell growth in a cell viability assay.

SW1417 = assay type: functional, cell-based, Homo sapiens; settings: Homo sapiens, SW1417;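 note: growth inhibition of human SW1417 cells, read out with a cell viability assay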
Description: SANGER: Inhibition of human SW1417 cell growth in a cell viability assay.

SW1573 = assay type: functional, cell-based, Homo sapiens; settings: Homo sapiens, SW1573;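 note: growth inhibition of SW1573 cells, read out with a cell viability assay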
Description: SANGER: Inhibition of human SW1573 cell growth in a cell viability assay.

SW1783 = assay type: functional, cell-based; settings: Homo sapiens;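 note: cell growth inhibition measured with a viability assay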
Description: SANGER: Inhibition of human SW1783 cell growth in a cell viability assay.

SW684 = assay type: functional, cell-based, Homo sapiens; settings: Homo sapiens, SW684;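 note: growth inhibition of human SW684 cells, measured by a cell viability assay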
Description: SANGER: Inhibition of human SW684 cell growth in a cell viability assay.

SW948 = assay type: functional, cell-based, Homo sapiens; settings: Homo sapiens, SW948;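 note: growth inhibition of SW948 cells, read out with a cell viability assay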
Description: SANGER: Inhibition of human SW948 cell growth in a cell viability assay.

T-24 = assay type: functional, cell-based, Homo sapiens; settings: Homo sapiens, T-24;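 note: growth inhibition of T-24 cells, read out with a cell viability assay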
Description: SANGER: Inhibition of human T-24 cell growth in a cell viability assay.

639-V = assay type: functional, cell-based, Homo sapiens; settings: Homo sapiens, 639-V;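 note: growth inhibition of 639-V cells, read out with a cell viability assay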
Description: SANGER: Inhibition of human 639-V cell growth in a cell viability assay.

A-375 = assay type: functional, cell-based, Homo sapiens; settings: Homo sapiens, A-375;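 note: growth inhibition of A375 cells, read out with a cell viability assay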
Description: SANGER: Inhibition of human A375 cell growth in a cell viability assay.

A388 = assay type: functional, cell-based, Homo sapiens; settings: Homo sapiens, A388;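 note: growth inhibition of human A388 cells, read out with a cell viability assay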
Description: SANGER: Inhibition of human A388 cell growth in a cell viability assay.

C8166 = assay type: functional, cell-based; settings: Homo sapiens;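 note: growth inhibition of human C8166 cells measured by a cell viability assay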
Description: SANGER: Inhibition of human C8166 cell growth in a cell viability assay.

CAL-120 = assay type: functional, cell-based, Homo sapiens; settings: Homo sapiens, CAL-120;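 note: cell growth inhibition, read out as cell viability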
Description: SANGER: Inhibition of human CAL-120 cell growth in a cell viability assay.

CAL-51 = assay type: functional, cell-based, Homo sapiens; settings: Homo sapiens, CAL-51;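 note: human CAL-51 cell line, growth inhibition read out via a cell viability assay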
Description: SANGER: Inhibition of human CAL-51 cell growth in a cell viability assay.

U-87 MG = assay type: functional, cell-based, U-87MG ATCC; settings: Homo sapiens;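 note: growth inhibition of the cells measured with a viability assay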
Description: SANGER: Inhibition of human U-87-MG cell growth in a cell viability assay.

COLO-668 = assay type: functional, cell-based, Homo sapiens; settings: Homo sapiens, COLO-668
Description: SANGER: Inhibition of human COLO-668 cell growth in a cell viability assay.

COc1cc([C@@H]2c3cc4c(cc3[C@@H](O[C@@H]3O[C@@H]5CO[C@@H](C)O[C@H]5[C@H](O)[C@H]3O)[C@H]3COC(=O)[C@H]23)OCO4)cc(OC)c1O [ETOPOSIDE]
pIC50 (COLO-741): < 4.80
pIC50 (COR-L23): 5.21
pIC50 (EFO-21): 4.93
pIC50 (ES4): 6.28
pIC50 (G-401): 5.84
pIC50 (GCT): 5.49
pIC50 (HCC1419): < 4.80
pIC50 (HOS): 6.32
pIC50 (Huh-7): 5.59
pIC50 (IGR-1): 5.80
pIC50 (IST-MEL1): 5.52
pIC50 (KLE): 4.99
pIC50 (KYSE-150 cell line): 6.28
pIC50 (KYSE-270): 6.60
pIC50 (LCLC-103H cell line): 6.19
pIC50 (LS-513): < 4.80
pIC50 (LU-134-A): 6.52
pIC50 (MC-IXC): 6.94
pIC50 (ME-180): 6.08
pIC50 (MG-63): 5.93
pIC50 (NCI-H1092): < 4.80
pIC50 (NCI-H1395): < 4.80
pIC50 (NCI-H1755): < 4.80
pIC50 (NCI-H1793): 5.27
pIC50 (NCI-H2087): 6.12
pIC50 (NCI-H2126): 4.98
pIC50 (NCI-H2452): < 4.80
pIC50 (NCI-H747): < 4.80
pIC50 (OVCAR-5): 5.81
pIC50 (P30-OHK): 5.92
pIC50 (PA-1): 6.88
pIC50 (QIMR-WIL): 6.81
pIC50 (RH-1): 7.75
pIC50 (Ramos-2G6-4C10): 5.00
pIC50 (SF-268): 5.59
pIC50 (SK-MEL-30): 5.08
pIC50 (SK-NEP-1): 5.72
pIC50 (SW1417): < 4.80
pIC50 (SW1573): 5.65
pIC50 (SW1783): 5.51
pIC50 (SW684): < 4.80
pIC50 (SW948): < 4.80
pIC50 (T-24): < 4.80
pIC50 (639-V): 6.00
pIC50 (A-375): 6.20
pIC50 (A388): 5.48
pIC50 (C8166): 5.78
pIC50 (CAL-120): 4.81
pIC50 (CAL-51): 5.96
pIC50 (U-87 MG): < 4.80
pIC50 (COLO-668): 5.78

O=c1cc(-c2cccc3c2Sc2ccccc2S3)oc(N2CCOCC2)c1 [KU-55933]
pIC50 (COLO-741): < 5.00
pIC50 (COR-L23): < 5.00
pIC50 (EFO-21): < 5.00
pIC50 (ES4): < 5.00
pIC50 (G-401): < 5.00
pIC50 (GCT): < 5.00
pIC50 (HCC1419): < 5.00
pIC50 (HOS): < 5.00
pIC50 (Huh-7): < 5.00
pIC50 (IGR-1): < 5.00
pIC50 (IST-MEL1): < 5.00
pIC50 (KLE): < 5.00
pIC50 (KYSE-150 cell line): < 5.00
pIC50 (KYSE-270): < 5.00
pIC50 (LCLC-103H cell line): < 5.00
pIC50 (LS-513): < 5.00
pIC50 (LU-134-A): < 5.00
pIC50 (MC-IXC): < 5.00
pIC50 (ME-180): < 5.00
pIC50 (MG-63): < 5.00
pIC50 (NCI-H1092): < 5.00
pIC50 (NCI-H1395): < 5.00
pIC50 (NCI-H1755): < 5.00
pIC50 (NCI-H1793): < 5.00
pIC50 (NCI-H2087): < 5.00
pIC50 (NCI-H2126): < 5.00
pIC50 (NCI-H2452): < 5.00
pIC50 (NCI-H747): < 5.00
pIC50 (OVCAR-5): < 5.00
pIC50 (P30-OHK): < 5.00
pIC50 (PA-1): < 5.00
pIC50 (QIMR-WIL): < 5.00
pIC50 (RH-1): < 5.00
pIC50 (Ramos-2G6-4C10): < 5.00
pIC50 (SF-268): < 5.00
pIC50 (SK-MEL-30): < 5.00
pIC50 (SK-NEP-1): < 5.00
pIC50 (SW1417): < 5.00
pIC50 (SW1573): < 5.00
pIC50 (SW1783): < 5.00
pIC50 (SW684): < 5.00
pIC50 (SW948): < 5.00
pIC50 (T-24): < 5.00
pIC50 (639-V): < 5.00
pIC50 (A-375): < 5.00
pIC50 (A388): < 5.00
pIC50 (C8166): < 5.00
pIC50 (CAL-120): < 5.00
pIC50 (CAL-51): < 5.00
pIC50 (U-87 MG): < 5.00
pIC50 (COLO-668): < 5.00
